Positions of bridges follow the written chain, without caps; N, C: chain ends. Non-standard residues stand in square brackets, D forms with d. Residues, ends and D or L forms follow the SMILES beside them. Chains are numbered I, II in the order given. *: point of attachment. Quinoxaline2carbonyl = O=C(c1cnc2ccccc2n1)*; NMeV = CN[C@H](C(=O)O)C(C)C; NMeC = CN[C@@H](CS)C(=O)O
What was measured:
Format in all cases: functional
A549 = assay: Cytotoxicity against human A549 cells after 72 hrs by sulforhodamine B assay; conditions: A549, 72 h; for CC50: read-out: LC50 (the source's name)
HT-29 = assay: Cytotoxicity against human HT-29 cells after 72 hrs by sulforhodamine B assay; conditions: HT-29, 72 h; for CC50: read-out: LC50 (the source's name)
MDA-MB-231 = assay: Cytotoxicity against human MDA-MB-231 cells after 72 hrs by sulforhodamine B assay; conditions: MDA-MB-231, 72 h

With `CC(C)[C@H]1C(=O)OC[C@@H](NC(=O)c2nc3ccccc3cc2O)C(=O)N[C@@H](C)C(=O)N(C)[C@H]2CSSC[C@@H](C(=O)N1C)N(C)C(=O)[C@H](C)NC(=O)[C@H](NC(=O)c1nc3ccccc3cc1O)COC(=O)[C@H](C(C)C)N(C)C2=O` the GI50 (A549) was over 8.92 µM, the TGI (A549) was over 8.92 µM and the CC50 (A549) was over 8.92 µM. For the same compound, the GI50 (HT-29) was over 8.92 µM, the TGI (HT-29) was over 8.92 µM and the CC50 (HT-29) was over 8.92 µM. For the same compound, the GI50 (MDA-MB-231) was over 8.92 µM, the LC50 (concentration killing 50% of cells) (MDA-MB-231) was over 8.92 µM and the TGI (MDA-MB-231) was over 8.92 µM.
`CN1C[C@@H](NC(=O)c2nc3ccccc3cc2O)C(=O)NCC(=O)N(C)[C@H]2CSSC[C@@H](C(=O)N(C)[C@@H](CCN)C1=O)N(C)C(=O)CNC(=O)[C@H](NC(=O)c1nc3ccccc3cc1O)CN(C)C(=O)[C@H](CCN)N(C)C2=O` showed a GI50 (A549) of 8.95 µM, a TGI (A549) of 8.95 µM and a CC50 (A549) of 8.95 µM. For the same compound, the GI50 (HT-29) was 8.95 µM, the TGI (HT-29) was 8.95 µM and the CC50 (HT-29) was 8.95 µM. It also gave a GI50 (MDA-MB-231) of 8.95 µM, an LC50 (concentration killing 50% of cells) (MDA-MB-231) of 8.95 µM and a TGI (MDA-MB-231) of 8.95 µM.
In the case of `CSC[C@H]1C(=O)OC[C@@H](NC(=O)c2nc3ccccc3cc2O)C(=O)NCC(=O)N(C)[C@H]2CSSC[C@@H](C(=O)N1C)N(C)C(=O)CNC(=O)[C@H](NC(=O)c1nc3ccccc3cc1O)COC(=O)[C@H](CSC)N(C)C2=O`, the GI50 (A549) is reported as 0.311 µM, the TGI (A549) is reported as 2.75 µM and the CC50 (A549) is reported as 7.91 µM. For the same compound, the GI50 (HT-29) was 0.4 µM, the TGI (HT-29) was 3.55 µM and the CC50 (HT-29) was 7.55 µM. The GI50 (MDA-MB-231) was 0.462 µM, the LC50 (concentration killing 50% of cells) (MDA-MB-231) was 6.4 µM and the TGI (MDA-MB-231) was 2.75 µM.
With `CN1C[C@@H](NC(=O)c2nc3ccccc3cc2O)C(=O)NCC(=O)N(C)[C@H]2CSSC[C@@H](C(=O)N(C)[C@@H](CN)C1=O)N(C)C(=O)CNC(=O)[C@H](NC(=O)c1nc3ccccc3cc1O)CN(C)C(=O)[C@H](CN)N(C)C2=O` the GI50 (A549) was 8.95 µM, the TGI (A549) was 8.95 µM and the CC50 (A549) was 8.95 µM. The GI50 (HT-29) was 8.95 µM, the TGI (HT-29) was 8.95 µM and the CC50 (HT-29) was 8.95 µM. For the same compound, the GI50 (MDA-MB-231) was 8.95 µM, the LC50 (concentration killing 50% of cells) (MDA-MB-231) was 8.95 µM and the TGI (MDA-MB-231) was 8.95 µM.
`COCCOCCOCC(=O)NC[C@H]1C(=O)N(C)C[C@@H](NC(=O)c2nc3ccccc3cc2O)C(=O)NCC(=O)N(C)[C@H]2CSSC[C@@H](C(=O)N1C)N(C)C(=O)CNC(=O)[C@H](NC(=O)c1nc3ccccc3cc1O)CN(C)C(=O)[C@H](CNC(=O)COCCOCCOC)N(C)C2=O` showed a GI50 (A549) of over 7.09 µM, a TGI (A549) of over 7.09 µM and a CC50 (A549) of over 7.09 µM. For the same compound, the GI50 (HT-29) was over 7.09 µM, the TGI (HT-29) was over 7.09 µM and the CC50 (HT-29) was over 7.09 µM. For the same compound, the GI50 (MDA-MB-231) was over 7.09 µM, the LC50 (concentration killing 50% of cells) (MDA-MB-231) was over 7.09 µM and the TGI (MDA-MB-231) was over 7.09 µM.
`CC(C)[C@H]1C(=O)N(C)C[C@@H](NC(=O)c2cnc3ccccc3n2)C(=O)N[C@@H](C)C(=O)N(C)[C@H]2CSSC[C@@H](C(=O)N1C)N(C)C(=O)[C@H](C)NC(=O)[C@H](NC(=O)c1cnc3ccccc3n1)CN(C)C(=O)[C@H](C(C)C)N(C)C2=O` gave a GI50 (A549) of over 8.98 µM, a TGI (A549) of over 8.98 µM and a CC50 (A549) of over 8.98 µM. The GI50 (HT-29) was 8.44 µM, the TGI (HT-29) was over 8.98 µM and the CC50 (HT-29) was over 8.98 µM. For the same compound, the GI50 (MDA-MB-231) was 5.93 µM, the LC50 (concentration killing 50% of cells) (MDA-MB-231) was over 8.98 µM and the TGI (MDA-MB-231) was over 8.98 µM.
`CSC[C@H]1C(=O)N(C)C[C@@H](NC(=O)c2cnc3ccccc3n2)C(=O)NCC(=O)N(C)[C@H]2CSSC[C@@H](C(=O)N1C)N(C)C(=O)CNC(=O)[C@H](NC(=O)c1cnc3ccccc3n1)CN(C)C(=O)[C@H](CSC)N(C)C2=O` showed a GI50 (A549) of 0.0713 µM, a TGI (A549) of over 8.92 µM and a CC50 (A549) of over 8.92 µM. It also gave a GI50 (HT-29) of 0.357 µM, a TGI (HT-29) of over 8.92 µM and a CC50 (HT-29) of over 8.92 µM. The GI50 (MDA-MB-231) was 0.0473 µM, the LC50 (concentration killing 50% of cells) (MDA-MB-231) was over 8.92 µM and the TGI (MDA-MB-231) was 1.43 µM.
For `CSC[C@H]1C(=O)N(C)C[C@@H](NC(=O)c2nc3ccccc3cc2O)C(=O)NCC(=O)N(C)[C@H]2CSSC[C@@H](C(=O)N1C)N(C)C(=O)CNC(=O)[C@H](NC(=O)c1nc3ccccc3cc1O)CN(C)C(=O)[C@H](CSC)N(C)C2=O`, the GI50 (A549) was 0.00339 µM, the TGI (A549) was 0.02 µM and the CC50 (A549) was 0.165 µM. For the same compound, the CC50 (HT-29) was 0.747 µM, the GI50 (MDA-MB-231) was 0.00408 µM and the LC50 (concentration killing 50% of cells) (MDA-MB-231) was 0.373 µM. It also gave a TGI (MDA-MB-231) of 0.0426 µM.
With `CSC[C@H]1C(=O)SC[C@@H](NC(=O)c2nc3ccccc3cc2O)C(=O)NCC(=O)N(C)[C@H]2SSC[C@@H](C(=O)N1C)N(C)C(=O)CNC(=O)[C@H](NC(=O)c1nc3ccccc3cc1O)CSC(=O)[C@H](CSC)N(C)C2=O` [THIOCORALINE] the GI50 (A549) was 0.00622 µM, the TGI (A549) was 0.0242 µM and the CC50 (A549) was 0.095 µM. For the same compound, the CC50 (HT-29) was 0.138 µM, the GI50 (MDA-MB-231) was 0.00207 µM and the LC50 (concentration killing 50% of cells) (MDA-MB-231) was 0.0346 µM. It also gave a TGI (MDA-MB-231) of 0.0095 µM.
Compound `COCCOCCOCC(=O)NCC[C@H]1C(=O)N(C)C[C@@H](NC(=O)c2nc3ccccc3cc2O)C(=O)NCC(=O)N(C)[C@H]2CSSC[C@@H](C(=O)N1C)N(C)C(=O)CNC(=O)[C@H](NC(=O)c1nc3ccccc3cc1O)CN(C)C(=O)[C@H](CCNC(=O)COCCOCCOC)N(C)C2=O` has a GI50 (A549) of over 6.96 µM, a TGI (A549) of over 6.96 µM and a CC50 (A549) of over 6.96 µM. It also gave a GI50 (HT-29) of over 6.96 µM, a TGI (HT-29) of over 6.96 µM and a CC50 (HT-29) of over 6.96 µM. The GI50 (MDA-MB-231) was over 6.96 µM, the LC50 (concentration killing 50% of cells) (MDA-MB-231) was over 6.96 µM and the TGI (MDA-MB-231) was over 6.96 µM.
`CC(C)[C@H]1C(=O)OC[C@@H](NC(=O)c2cnc3ccccc3n2)C(=O)N[C@@H](C)C(=O)N(C)[C@H]2CSSC[C@@H](C(=O)N1C)N(C)C(=O)[C@H](C)NC(=O)[C@H](NC(=O)c1cnc3ccccc3n1)COC(=O)[C@H](C(C)C)N(C)C2=O` [TRIOSTIN] (I: Quinoxaline2carbonyl-[dS]A[NMeC][NMeV] / II: Quinoxaline2carbonyl-[dS]A[NMeC][NMeV]; ester I:1-II:C, I:C-II:1; disulfide I:3-II:3) was tested, and the GI50 (A549) was 0.34 µM, the TGI (A549) was 1.66 µM and the CC50 (A549) was over 9.2 µM. For the same compound, the GI50 (HT-29) was 0.23 µM, the TGI (HT-29) was 2.85 µM and the CC50 (HT-29) was over 9.2 µM. For the same compound, the GI50 (MDA-MB-231) was 0.202 µM, the LC50 (concentration killing 50% of cells) (MDA-MB-231) was 1.56 µM and the TGI (MDA-MB-231) was 0.515 µM.
